According to article PMC5513037, “Examining the influence of specificity ligands and ATP-competitive ligands on the overall effectiveness of bivalent kinase inhibitors” (Proteome Science, 2017):

What was measured:
Assay in all cases: KAM-matrix competition in K562 lysate;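 on 0.001 uM KAM: median log10 fold change of treatment over DMSO control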;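 on 0.01 uM KAM: median log10 fold change of treatment over DMSO control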;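 on 0.1 uM KAM: median log10 fold change of treatment over DMSO control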;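 on 1 uM KAM: median log10 fold change of treatment over DMSO control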;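 on 10 uM KAM: median log10 fold change of treatment over DMSO control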
Assay type in all cases: binding
[1] = molecular target: T1, PKN2 (Homo sapiens, UniProt Q16513);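 on 0.001 uM KAM: median log10 fold change of treatment over DMSO control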;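 on 0.01 uM KAM: median log10 fold change of treatment over DMSO control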;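 on 0.1 uM KAM: median log10 fold change of treatment over DMSO control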;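 on 1 uM KAM: median log10 fold change of treatment over DMSO control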;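 on 10 uM KAM: median log10 fold change of treatment over DMSO control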
T1 construct: endogenous in cells; host or cells: K562
Procedure: (§1) Supplement 12953_2017_125_MOESM1_ESM.zip/MS_Supp Info.xlsx, sheet "KAM" | column: 10 uM KAM; 1 uM KAM; 0.1 uM KAM; 0.01 uM KAM; 0.001 uM KAM; RB50

[2] = molecular target: LIMK1 (Homo sapiens, UniProt P53667);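 on 0.001 uM KAM: median log10 fold change of treatment over DMSO control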;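 on 0.01 uM KAM: median log10 fold change of treatment over DMSO control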;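 on 0.1 uM KAM: median log10 fold change of treatment over DMSO control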;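 on 1 uM KAM: median log10 fold change of treatment over DMSO control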;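 on 10 uM KAM: median log10 fold change of treatment over DMSO control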
Procedure: as §1

[3] = molecular target: T2, PAK2 (Homo sapiens, UniProt Q13177);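 on 0.001 uM KAM: median log10 fold change of treatment over DMSO control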;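 on 0.01 uM KAM: median log10 fold change of treatment over DMSO control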;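 on 0.1 uM KAM: median log10 fold change of treatment over DMSO control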;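 on 1 uM KAM: median log10 fold change of treatment over DMSO control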;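 on 10 uM KAM: median log10 fold change of treatment over DMSO control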
T2 construct: endogenous in cells; host or cells: K562
Procedure: as §1

[4] = molecular target: T3, CLK1 (Homo sapiens, UniProt P49759)
T3 construct: endogenous in cells; host or cells: K562
Procedure: as §1

[5] = molecular target: T4, CDK14 (Homo sapiens, UniProt O94921)
T4 construct: endogenous in cells; host or cells: K562
Procedure: as §1

[6] = molecular target: T5, TAOK3 (Homo sapiens, UniProt Q9H2K8)
T5 construct: endogenous in cells; host or cells: K562
T5 sequence (Q9H2K8 1-898): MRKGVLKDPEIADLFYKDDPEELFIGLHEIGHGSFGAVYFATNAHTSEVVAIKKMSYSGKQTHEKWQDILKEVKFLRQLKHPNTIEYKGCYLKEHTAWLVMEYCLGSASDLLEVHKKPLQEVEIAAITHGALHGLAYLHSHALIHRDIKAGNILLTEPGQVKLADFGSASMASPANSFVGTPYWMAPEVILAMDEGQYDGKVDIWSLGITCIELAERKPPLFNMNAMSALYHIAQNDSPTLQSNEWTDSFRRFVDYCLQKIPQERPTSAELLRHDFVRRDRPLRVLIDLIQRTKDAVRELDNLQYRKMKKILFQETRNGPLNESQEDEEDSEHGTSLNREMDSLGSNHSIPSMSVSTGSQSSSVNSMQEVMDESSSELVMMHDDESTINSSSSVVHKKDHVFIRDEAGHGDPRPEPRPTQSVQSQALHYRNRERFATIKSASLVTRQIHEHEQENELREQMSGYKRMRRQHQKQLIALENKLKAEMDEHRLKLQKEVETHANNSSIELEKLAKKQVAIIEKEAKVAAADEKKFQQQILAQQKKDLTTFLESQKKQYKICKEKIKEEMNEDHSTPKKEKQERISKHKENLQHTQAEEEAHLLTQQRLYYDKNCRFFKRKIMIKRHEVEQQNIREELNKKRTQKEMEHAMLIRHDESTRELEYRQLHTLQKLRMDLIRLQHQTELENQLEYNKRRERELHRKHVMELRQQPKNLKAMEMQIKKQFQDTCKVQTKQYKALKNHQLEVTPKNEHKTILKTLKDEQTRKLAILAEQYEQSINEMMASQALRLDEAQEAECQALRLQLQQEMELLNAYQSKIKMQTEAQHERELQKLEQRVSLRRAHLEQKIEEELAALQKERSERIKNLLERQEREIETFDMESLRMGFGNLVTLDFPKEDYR
Procedure: as §1

[7] = molecular target: T6, RET (Homo sapiens, UniProt P07949)
T6 construct: endogenous in cells; host or cells: K562
Procedure: as §1

[8] = molecular target: T7, FGFR3 (Homo sapiens, UniProt P22607)
T7 construct: endogenous in cells; host or cells: K562
Procedure: as §1

[9] = molecular target: T8, CDK13 (Homo sapiens, UniProt Q14004)
T8 construct: endogenous in cells; host or cells: K562
Procedure: as §1

[10] = molecular target: T9, ROCK2 (Homo sapiens, UniProt O75116);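 on 0.001 uM KAM: median log10 fold change of treatment over DMSO control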;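 on 0.01 uM KAM: median log10 fold change of treatment over DMSO control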;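 on 0.1 uM KAM: median log10 fold change of treatment over DMSO control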;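 on 1 uM KAM: median log10 fold change of treatment over DMSO control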;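 on 10 uM KAM: median log10 fold change of treatment over DMSO control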
T9 construct: endogenous in cells; host or cells: K562
Procedure: as §1

[11] = molecular target: T10, CDK16 (Homo sapiens, UniProt Q00536)
T10 construct: endogenous in cells; host or cells: K562
Procedure: as §1

[12] = molecular target: T11, MAP2K1 (Homo sapiens, UniProt Q02750)
T11 construct: endogenous in cells; host or cells: K562
Procedure: as §1

[13] = molecular target: T12, MAP2K2 (Homo sapiens, UniProt P36507)
T12 construct: endogenous in cells; host or cells: K562
Procedure: as §1

[14] = KAM 0.001-10 uM, read-out: RB50 (the source's name)
[15] = read-out: RB50 (the source's name)

T1 sequence (Q16513 whole entry): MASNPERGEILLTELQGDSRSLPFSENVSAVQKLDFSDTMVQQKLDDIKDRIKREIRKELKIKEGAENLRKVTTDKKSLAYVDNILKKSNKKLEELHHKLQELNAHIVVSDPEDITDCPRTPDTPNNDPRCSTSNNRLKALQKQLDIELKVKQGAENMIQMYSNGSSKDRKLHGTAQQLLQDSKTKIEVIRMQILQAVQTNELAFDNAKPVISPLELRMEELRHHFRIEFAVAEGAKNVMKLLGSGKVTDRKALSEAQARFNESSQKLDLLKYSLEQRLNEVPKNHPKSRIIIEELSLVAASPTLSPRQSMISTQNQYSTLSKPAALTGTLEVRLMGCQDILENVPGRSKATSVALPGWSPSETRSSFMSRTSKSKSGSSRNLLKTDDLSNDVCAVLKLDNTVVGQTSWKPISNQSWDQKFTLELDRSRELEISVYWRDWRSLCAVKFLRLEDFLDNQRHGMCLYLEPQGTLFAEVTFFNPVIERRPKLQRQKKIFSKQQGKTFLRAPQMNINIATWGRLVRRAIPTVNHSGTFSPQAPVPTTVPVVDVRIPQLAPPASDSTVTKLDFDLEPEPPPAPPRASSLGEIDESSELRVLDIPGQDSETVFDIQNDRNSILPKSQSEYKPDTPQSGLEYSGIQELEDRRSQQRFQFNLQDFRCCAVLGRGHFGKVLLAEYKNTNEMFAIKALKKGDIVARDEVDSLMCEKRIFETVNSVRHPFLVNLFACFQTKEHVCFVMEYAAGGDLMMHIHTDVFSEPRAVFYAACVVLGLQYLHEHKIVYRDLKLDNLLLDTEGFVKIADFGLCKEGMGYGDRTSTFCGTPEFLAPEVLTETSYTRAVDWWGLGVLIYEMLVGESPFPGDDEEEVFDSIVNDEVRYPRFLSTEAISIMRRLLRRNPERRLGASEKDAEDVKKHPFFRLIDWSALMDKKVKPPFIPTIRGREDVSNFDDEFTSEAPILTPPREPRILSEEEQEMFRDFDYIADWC
T4 sequence (O94921 whole entry): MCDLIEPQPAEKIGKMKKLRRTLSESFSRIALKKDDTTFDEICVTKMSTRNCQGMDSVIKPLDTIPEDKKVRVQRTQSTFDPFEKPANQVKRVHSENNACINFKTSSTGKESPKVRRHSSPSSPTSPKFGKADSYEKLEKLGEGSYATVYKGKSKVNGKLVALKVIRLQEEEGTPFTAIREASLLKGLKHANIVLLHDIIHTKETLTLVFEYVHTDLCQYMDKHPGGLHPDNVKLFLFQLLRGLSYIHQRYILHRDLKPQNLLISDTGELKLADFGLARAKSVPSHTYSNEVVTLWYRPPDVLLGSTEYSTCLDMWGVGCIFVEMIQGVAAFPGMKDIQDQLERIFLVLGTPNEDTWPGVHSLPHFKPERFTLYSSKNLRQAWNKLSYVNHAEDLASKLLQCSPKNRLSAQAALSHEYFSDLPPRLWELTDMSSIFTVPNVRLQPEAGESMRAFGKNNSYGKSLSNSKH
T7 sequence (P22607 23-806): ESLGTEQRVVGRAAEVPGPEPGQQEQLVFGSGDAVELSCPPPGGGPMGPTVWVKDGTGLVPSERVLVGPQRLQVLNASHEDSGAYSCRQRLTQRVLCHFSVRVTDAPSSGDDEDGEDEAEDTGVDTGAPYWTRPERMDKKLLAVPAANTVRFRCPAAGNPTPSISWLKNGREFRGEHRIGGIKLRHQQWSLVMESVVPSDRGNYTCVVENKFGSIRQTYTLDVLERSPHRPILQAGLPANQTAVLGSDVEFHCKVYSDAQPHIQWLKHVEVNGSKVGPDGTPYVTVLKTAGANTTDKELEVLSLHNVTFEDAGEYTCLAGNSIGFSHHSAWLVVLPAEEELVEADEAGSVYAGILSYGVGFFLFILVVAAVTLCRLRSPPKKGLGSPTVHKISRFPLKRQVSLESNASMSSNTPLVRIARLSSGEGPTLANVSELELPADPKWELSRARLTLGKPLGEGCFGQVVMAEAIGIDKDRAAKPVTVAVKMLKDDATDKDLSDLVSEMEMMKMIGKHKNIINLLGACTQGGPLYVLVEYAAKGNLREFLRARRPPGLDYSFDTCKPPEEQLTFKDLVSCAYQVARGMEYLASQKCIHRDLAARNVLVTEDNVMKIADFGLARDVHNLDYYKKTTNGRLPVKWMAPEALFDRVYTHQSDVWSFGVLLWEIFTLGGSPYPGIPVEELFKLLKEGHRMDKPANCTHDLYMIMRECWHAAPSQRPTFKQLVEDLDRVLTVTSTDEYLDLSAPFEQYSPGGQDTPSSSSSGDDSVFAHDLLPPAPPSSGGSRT
T11 sequence (Q02750 whole entry): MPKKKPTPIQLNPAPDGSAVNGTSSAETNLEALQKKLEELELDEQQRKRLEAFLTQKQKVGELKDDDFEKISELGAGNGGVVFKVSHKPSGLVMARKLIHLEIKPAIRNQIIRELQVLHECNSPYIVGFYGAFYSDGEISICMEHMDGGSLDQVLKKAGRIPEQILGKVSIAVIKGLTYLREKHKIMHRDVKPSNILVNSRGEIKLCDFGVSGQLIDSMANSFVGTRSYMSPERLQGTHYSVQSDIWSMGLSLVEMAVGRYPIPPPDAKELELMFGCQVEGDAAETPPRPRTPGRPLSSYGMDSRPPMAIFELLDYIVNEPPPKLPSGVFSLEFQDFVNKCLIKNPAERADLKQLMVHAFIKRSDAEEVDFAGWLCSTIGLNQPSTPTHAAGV
T6 sequence (P07949 29-1114): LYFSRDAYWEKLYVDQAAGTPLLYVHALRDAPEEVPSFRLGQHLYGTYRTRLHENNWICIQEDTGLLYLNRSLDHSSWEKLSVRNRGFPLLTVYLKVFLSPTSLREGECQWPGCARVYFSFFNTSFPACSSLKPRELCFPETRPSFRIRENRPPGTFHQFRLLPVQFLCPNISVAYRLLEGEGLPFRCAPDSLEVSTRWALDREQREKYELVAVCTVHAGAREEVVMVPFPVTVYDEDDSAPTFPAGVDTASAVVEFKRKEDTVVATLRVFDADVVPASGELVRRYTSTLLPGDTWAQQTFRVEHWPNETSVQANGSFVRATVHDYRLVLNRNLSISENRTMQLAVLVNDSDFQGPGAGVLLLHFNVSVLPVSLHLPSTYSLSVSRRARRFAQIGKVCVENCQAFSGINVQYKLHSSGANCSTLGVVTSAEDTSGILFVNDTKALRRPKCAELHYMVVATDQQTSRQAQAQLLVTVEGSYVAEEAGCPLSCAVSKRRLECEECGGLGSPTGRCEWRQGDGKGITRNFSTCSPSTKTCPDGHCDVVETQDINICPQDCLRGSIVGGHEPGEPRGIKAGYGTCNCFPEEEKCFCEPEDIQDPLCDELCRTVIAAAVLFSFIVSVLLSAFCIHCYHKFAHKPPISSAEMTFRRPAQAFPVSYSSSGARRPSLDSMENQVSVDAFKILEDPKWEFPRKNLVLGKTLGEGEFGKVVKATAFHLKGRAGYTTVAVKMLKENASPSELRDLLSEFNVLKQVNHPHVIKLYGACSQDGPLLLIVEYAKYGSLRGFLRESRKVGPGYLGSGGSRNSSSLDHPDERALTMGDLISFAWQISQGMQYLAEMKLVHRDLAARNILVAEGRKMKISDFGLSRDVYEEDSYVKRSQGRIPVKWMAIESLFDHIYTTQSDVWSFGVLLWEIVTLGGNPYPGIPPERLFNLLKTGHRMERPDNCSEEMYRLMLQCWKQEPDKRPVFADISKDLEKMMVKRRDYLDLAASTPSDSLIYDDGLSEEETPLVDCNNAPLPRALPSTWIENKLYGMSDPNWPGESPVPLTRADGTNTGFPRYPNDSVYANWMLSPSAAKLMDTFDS
T12 sequence (P36507 whole entry): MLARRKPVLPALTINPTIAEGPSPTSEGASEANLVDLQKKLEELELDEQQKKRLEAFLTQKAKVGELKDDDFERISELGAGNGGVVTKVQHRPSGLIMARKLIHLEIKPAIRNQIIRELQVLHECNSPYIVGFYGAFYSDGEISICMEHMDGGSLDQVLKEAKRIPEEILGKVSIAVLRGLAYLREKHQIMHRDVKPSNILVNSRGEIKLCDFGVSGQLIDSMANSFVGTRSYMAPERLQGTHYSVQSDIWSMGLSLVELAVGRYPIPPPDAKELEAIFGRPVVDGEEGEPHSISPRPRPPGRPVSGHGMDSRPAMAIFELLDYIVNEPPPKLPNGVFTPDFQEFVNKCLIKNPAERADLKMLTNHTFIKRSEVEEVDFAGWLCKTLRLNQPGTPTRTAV
LIMK1, sequence (P53667 whole entry): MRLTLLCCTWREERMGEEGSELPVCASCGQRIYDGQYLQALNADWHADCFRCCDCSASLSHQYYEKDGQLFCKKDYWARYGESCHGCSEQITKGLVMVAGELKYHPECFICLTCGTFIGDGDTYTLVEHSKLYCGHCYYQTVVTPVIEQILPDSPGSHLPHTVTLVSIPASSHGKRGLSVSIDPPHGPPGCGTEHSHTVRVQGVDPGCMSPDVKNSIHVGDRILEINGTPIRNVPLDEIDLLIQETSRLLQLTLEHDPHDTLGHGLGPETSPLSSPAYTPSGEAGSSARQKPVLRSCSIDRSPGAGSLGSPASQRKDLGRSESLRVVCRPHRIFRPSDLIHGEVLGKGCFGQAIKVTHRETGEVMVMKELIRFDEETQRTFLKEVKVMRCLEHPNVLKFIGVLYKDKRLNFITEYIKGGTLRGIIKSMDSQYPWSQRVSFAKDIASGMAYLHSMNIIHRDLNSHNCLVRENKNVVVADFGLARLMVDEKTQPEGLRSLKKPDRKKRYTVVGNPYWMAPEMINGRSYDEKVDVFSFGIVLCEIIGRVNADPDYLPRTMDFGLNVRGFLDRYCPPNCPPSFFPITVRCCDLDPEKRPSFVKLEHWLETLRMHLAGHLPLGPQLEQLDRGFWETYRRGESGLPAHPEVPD

`N#CCc1ccc(Nc2nc(NCCCN)cc(Nc3cc(C4CC4)[nH]n3)n2)cc1` [KAM] was tested, and the IC50 [1, 14] was over 10 µM, the “0.001 uM KAM” value ([1]; relative to 0 uM KAM = 0) was -0.006639 and the “0.01 uM KAM” value ([1]; relative to 0 uM KAM = 0) was 0.00337. The “0.1 uM KAM” value ([1]; relative to 0 uM KAM = 0) was -0.04124, the “1 uM KAM” value ([1]; relative to 0 uM KAM = 0) was -0.08858 and the “10 uM KAM” value ([1]; relative to 0 uM KAM = 0) was -0.1344. The IC50 [2, 14] was over 10 µM, the “0.001 uM KAM” value ([2]; relative to 0 uM KAM = 0) was -0.03519 and the “0.01 uM KAM” value ([2]; relative to 0 uM KAM = 0) was -0.04768. The “0.1 uM KAM” value ([2]; relative to 0 uM KAM = 0) was -0.0434, the “1 uM KAM” value ([2]; relative to 0 uM KAM = 0) was 0.03552 and the “10 uM KAM” value ([2]; relative to 0 uM KAM = 0) was -0.3303. The IC50 [3, 14] was over 10 µM, the “0.001 uM KAM” value ([3]; relative to 0 uM KAM = 0) was 0.07363 and the “0.01 uM KAM” value ([3]; relative to 0 uM KAM = 0) was 0.03748. The “0.1 uM KAM” value ([3]; relative to 0 uM KAM = 0) was 0.116, the “1 uM KAM” value ([3]; relative to 0 uM KAM = 0) was 0.1461 and the “10 uM KAM” value ([3]; relative to 0 uM KAM = 0) was 0.07777. For the same compound, the “median Log10 fold change” value ([4]; 0.001 uM KAM) was 0.02063, the “median Log10 fold change” value ([4]; 0.01 uM KAM) was -0.05735 and the “median Log10 fold change” value ([4]; 0.1 uM KAM) was -0.2418. For the same compound, the “median Log10 fold change” value ([4]; 1 uM KAM) was -0.3053, the “median Log10 fold change” value ([4]; 10 uM KAM) was -0.4001 and the IC50 [4, 15] was 0.858 µM. For the same compound, the “median Log10 fold change” value ([5]; 0.001 uM KAM) was 0.09538, the “median Log10 fold change” value ([5]; 0.01 uM KAM) was 0.03255 and the “median Log10 fold change” value ([5]; 0.1 uM KAM) was -0.148. The “median Log10 fold change” value ([5]; 1 uM KAM) was -0.2642, the “median Log10 fold change” value ([5]; 10 uM KAM) was -0.4049 and the IC50 [5, 15] was 1.66 µM. For the same compound, the “median Log10 fold change” value ([6]; 0.001 uM KAM) was -0.0153, the “median Log10 fold change” value ([6]; 0.01 uM KAM) was 0.005812 and the “median Log10 fold change” value ([6]; 0.1 uM KAM) was -0.1317. For the same compound, the “median Log10 fold change” value ([6]; 1 uM KAM) was -0.2502, the “median Log10 fold change” value ([6]; 10 uM KAM) was -0.3407 and the IC50 [6, 15] was 2.69 µM. The “median Log10 fold change” value ([7]; 0.001 uM KAM) was -0.129, the “median Log10 fold change” value ([7]; 0.01 uM KAM) was -0.007083 and the “median Log10 fold change” value ([7]; 0.1 uM KAM) was -0.09548. The “median Log10 fold change” value ([7]; 1 uM KAM) was -0.3474, the “median Log10 fold change” value ([7]; 10 uM KAM) was -0.5381 and the IC50 [7, 15] was 0.908 µM. For the same compound, the “median Log10 fold change” value ([8]; 0.001 uM KAM) was 0.01443, the “median Log10 fold change” value ([8]; 0.01 uM KAM) was 0.001015 and the “median Log10 fold change” value ([8]; 0.1 uM KAM) was -0.1738. The “median Log10 fold change” value ([8]; 1 uM KAM) was -0.319, the “median Log10 fold change” value ([8]; 10 uM KAM) was -0.3424 and the IC50 [8, 15] was 1.16 µM. The “median Log10 fold change” value ([9]; 0.001 uM KAM) was -0.01353, the “median Log10 fold change” value ([9]; 0.01 uM KAM) was -0.006338 and the “median Log10 fold change” value ([9]; 0.1 uM KAM) was -0.0866. For the same compound, the “median Log10 fold change” value ([9]; 1 uM KAM) was -0.2891, the “median Log10 fold change” value ([9]; 10 uM KAM) was -0.4319 and the IC50 [9, 15] was 1.48 µM. For the same compound, the IC50 [10, 14] was over 10 µM, the “0.001 uM KAM” value ([10]; relative to 0 uM KAM = 0) was 0.005547 and the “0.01 uM KAM” value ([10]; relative to 0 uM KAM = 0) was 0.004918. The “0.1 uM KAM” value ([10]; relative to 0 uM KAM = 0) was -0.08686, the “1 uM KAM” value ([10]; relative to 0 uM KAM = 0) was -0.1587 and the “10 uM KAM” value ([10]; relative to 0 uM KAM = 0) was -0.127. The “median Log10 fold change” value ([11]; 0.001 uM KAM) was 0.002002, the “median Log10 fold change” value ([11]; 0.01 uM KAM) was 0.005918 and the “median Log10 fold change” value ([11]; 0.1 uM KAM) was -0.06683. For the same compound, the “median Log10 fold change” value ([11]; 1 uM KAM) was -0.3041, the “median Log10 fold change” value ([11]; 10 uM KAM) was -0.3301 and the IC50 [11, 15] was 1.97 µM. For the same compound, the “median Log10 fold change” value ([12]; 0.001 uM KAM) was -0.01014, the “median Log10 fold change” value ([12]; 0.01 uM KAM) was -0.05282 and the “median Log10 fold change” value ([12]; 0.1 uM KAM) was -0.2542. The “median Log10 fold change” value ([12]; 1 uM KAM) was -0.5685, the “median Log10 fold change” value ([12]; 10 uM KAM) was -0.7087 and the IC50 [12, 15] was 0.164 µM. The “median Log10 fold change” value ([13]; 0.001 uM KAM) was -0.0579, the “median Log10 fold change” value ([13]; 0.01 uM KAM) was -0.04236 and the “median Log10 fold change” value ([13]; 0.1 uM KAM) was -0.2079. The “median Log10 fold change” value ([13]; 1 uM KAM) was -0.4376, the “median Log10 fold change” value ([13]; 10 uM KAM) was -0.4638 and the IC50 [13, 15] was 0.36 µM.
